Reference: ChEMBL document CHEMBL1201862, “PubChem BioAssay data set” (2004)
Active and inactive are the calls of the source.

Legend:
[1] = target: T1, Beta-2 adrenergic receptor (Homo sapiens, UniProt P07550); test: ADRB2 activation measured by internalization – cell-based, FAP fluorogen, flow cytometry, cherry pick 1, dose response (AID 588763); format: functional
[2] = target: T1, Beta-2 adrenergic receptor; test: Dose response for HTS for Beta-2AR agonists via FAP method from Powderset3.; format: functional
Beta-galactosidase = Beta-galactosidase (Escherichia coli, UniProt Q8VNN2); test: PubChem AID 485352; format: functional
Jurkat = test: blockers of NF-kB activation in T cells – Jurkat, luciferase reporter, luminescence, B- and T-cell, dose response (AID 489004); format: functional, cell-based; conditions: Homo sapiens;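 note: NF-kB luciferase reporter Jurkat cells stimulated with PMA plus ionomycin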
[3] = target: T2, Type-1 angiotensin II receptor (Homo sapiens, UniProt P30556); test: antagonism of angiotensin II type 1 receptor – cell-based, uHTS hits, selectivity assay for APJ receptor antagonist project, dose response (AID 463214); format: functional;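 note: antagonist potency against angiotensin II stimulated AT1 response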
T2 sequence (P30556 whole entry): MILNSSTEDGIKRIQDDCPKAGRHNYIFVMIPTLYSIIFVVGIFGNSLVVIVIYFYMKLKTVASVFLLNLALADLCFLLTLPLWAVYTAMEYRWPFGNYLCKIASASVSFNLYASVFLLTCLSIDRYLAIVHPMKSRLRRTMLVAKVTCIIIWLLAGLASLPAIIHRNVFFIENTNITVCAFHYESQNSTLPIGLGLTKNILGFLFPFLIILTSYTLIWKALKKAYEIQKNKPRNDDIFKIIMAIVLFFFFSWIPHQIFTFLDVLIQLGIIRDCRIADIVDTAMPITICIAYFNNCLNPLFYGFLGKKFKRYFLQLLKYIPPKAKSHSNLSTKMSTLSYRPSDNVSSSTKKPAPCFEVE

[4] = reduction of Shn3 3'UTR-driven luciferase in osteoblasts – cell-based, Clone20 osteoblasts, firefly luciferase, cherry-picked, dose response (AID 624132); format: functional;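 note: firefly luciferase luminescence from reporter carrying the Shn3 3'UTR in osteoblasts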
[5] = non-specific 3'UTR reporter inhibition in Clone20-Shn3RL – cell-based, Renilla luciferase, cherry-picked, counter-screen for Shn3 inhibitor project, dose response (AID 624133); format: functional
[6] = loss of viability in HepG2 cells – cell-based, CellTiter-Glo, cherry-picked, cytotoxicity control for Shn3 inhibitor project, dose response (AID 624134); format: functional
[7] = HEK-293T viability loss, compound-treated – cell-based, uHTS hits, cytotoxicity control for B/T-cell NF-kB inhibitor project, dose response (AID 489019); format: functional;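 note: IC50 reflects cytotoxicity as loss of cell viability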
[8] = viability loss of HMLE_sh_eGFP cells – cell-based, luminescence, counter-screen for HMLE_sh_ECad selective toxicity project, dose response (AID 463074); format: functional, Homo sapiens;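 note: HMLE human mammary epithelial cells expressing control shRNA against eGFP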
[9] = Luminescence Cell-Based Dose Retest to Confirm Inhibitors of Cancer Stem Cells. [Related pubchem assays (depositor defined):AID2717, AID2721]; format: functional; conditions: Homo sapiens
[10] = target: Dual specificity protein phosphatase 6 (Rattus norvegicus, UniProt Q64346); format: functional;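 note: confirmatory in vitro dose-response testing of MKP-3 inhibition; recombinant His-tagged MKP-3 made in E. coli BL21 with OMFP substrate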
[11] = target: Tyrosine-protein phosphatase non-receptor type 12 (Homo sapiens, UniProt Q05209); test: SAR Selectivity Analysis of small molecule inhibitors of PEST using pCAP in a fluorescence assay. [Related pubchem assays (depositor defined):AID1779, AID1784, AID2135]; format: functional
[12] = target: T3, Tyrosine-protein phosphatase non-receptor type 22 (Homo sapiens, UniProt Q9Y2R2); test: inhibition of lymphoid tyrosine phosphatase LYP – biochemical, pCAP fluorogenic substrate, fluorescence, set 3, SAR follow-up (AID 449727); format: functional
T3 sequence (Q9Y2R2 whole entry): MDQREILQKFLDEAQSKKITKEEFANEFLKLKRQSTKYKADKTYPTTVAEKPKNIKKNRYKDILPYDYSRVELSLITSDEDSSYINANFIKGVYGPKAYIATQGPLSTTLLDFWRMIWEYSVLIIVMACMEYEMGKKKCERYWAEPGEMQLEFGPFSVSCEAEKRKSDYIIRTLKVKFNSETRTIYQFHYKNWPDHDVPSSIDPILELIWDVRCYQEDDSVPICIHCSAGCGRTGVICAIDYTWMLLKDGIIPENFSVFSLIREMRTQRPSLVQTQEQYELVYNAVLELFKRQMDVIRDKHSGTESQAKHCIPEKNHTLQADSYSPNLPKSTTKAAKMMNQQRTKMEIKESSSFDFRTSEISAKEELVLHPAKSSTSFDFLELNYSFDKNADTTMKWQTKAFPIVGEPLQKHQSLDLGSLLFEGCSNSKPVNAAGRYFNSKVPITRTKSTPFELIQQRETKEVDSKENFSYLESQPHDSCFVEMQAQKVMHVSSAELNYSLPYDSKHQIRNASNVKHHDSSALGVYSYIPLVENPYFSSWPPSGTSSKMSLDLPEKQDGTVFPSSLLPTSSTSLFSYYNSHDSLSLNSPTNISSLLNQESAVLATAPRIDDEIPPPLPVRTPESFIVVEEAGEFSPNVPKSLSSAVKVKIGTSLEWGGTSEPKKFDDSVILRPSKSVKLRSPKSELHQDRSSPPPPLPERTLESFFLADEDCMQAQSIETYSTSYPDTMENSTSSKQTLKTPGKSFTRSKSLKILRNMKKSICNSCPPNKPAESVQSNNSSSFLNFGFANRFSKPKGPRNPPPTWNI

[13] = target: T4, Dual specificity protein phosphatase 3 (Homo sapiens, UniProt P51452); test: SAR VHR1 Fluorescent Assay for In Vitro dose response studies Set 2. [Related pubchem assays (depositor defined):AID1654, AID1661, AID1878]; format: functional
[14] = target: T3, Tyrosine-protein phosphatase non-receptor type 22; test: SAR LYP1 Fluorescent Assay using OMFP substrate for In Vitro dose response studies - Set 3. [Related pubchem assays (depositor defined):AID1779, AID1784, AID2140, AID2686]; format: functional
[15] = target: T4, Dual specificity protein phosphatase 3; test: SAR VHR1 Fluorescent Assay for In Vitro dose response studies. [Related pubchem assays (depositor defined):AID1654, AID1661, AID1878, AID1992, AID2004, AID2070, AID2085]; format: functional
[16] = target: T4, Dual specificity protein phosphatase 3; test: MOA VHR1 Fluorescent secondary assay for identification of redox-state modulating compounds. [Related pubchem assays (depositor defined):AID1654, AID1661, AID1878, AID1957]
[17] = target: T5, Tyrosine-protein phosphatase non-receptor type 7 (Homo sapiens, UniProt P35236); test: inhibition of hematopoietic tyrosine phosphatase HePTP – biochemical, set 2, SAR follow-up (AID 449736); format: functional
T5 sequence (P35236 whole entry): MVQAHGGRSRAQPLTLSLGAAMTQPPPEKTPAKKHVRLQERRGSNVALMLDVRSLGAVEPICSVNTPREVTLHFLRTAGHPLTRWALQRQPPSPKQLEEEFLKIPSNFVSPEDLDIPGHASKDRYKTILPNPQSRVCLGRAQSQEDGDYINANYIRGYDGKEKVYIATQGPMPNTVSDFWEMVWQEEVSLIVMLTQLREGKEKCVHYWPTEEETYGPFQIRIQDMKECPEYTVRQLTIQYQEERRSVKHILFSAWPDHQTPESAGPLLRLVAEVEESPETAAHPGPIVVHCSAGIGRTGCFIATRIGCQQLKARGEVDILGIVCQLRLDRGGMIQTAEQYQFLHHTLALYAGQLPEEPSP

[18] = target: T5, Tyrosine-protein phosphatase non-receptor type 7; test: redox-active compounds inhibiting HePTP phosphatase – biochemical, fluorescence, mechanism study (AID 2068); format: functional
Hexokinase-1 = Hexokinase-1 (Homo sapiens, UniProt P19367); test: SAR analysis of small molecule inhibitors of hexokinase domain containing I (HKDC1) in the hexokinase 1 selectivity assay. [Related pubchem assays (depositor defined):AID493160, AID493190]; format: functional
Hexokinase HKDC1 = target: T6, Hexokinase HKDC1 (Homo sapiens, UniProt Q2TB90); test: SAR analysis of small molecule inhibitors of hexokinase domain containing I (HKDC1). [Related pubchem assays (depositor defined):AID493160, AID493190]; format: functional
T6 sequence (Q2TB90 whole entry): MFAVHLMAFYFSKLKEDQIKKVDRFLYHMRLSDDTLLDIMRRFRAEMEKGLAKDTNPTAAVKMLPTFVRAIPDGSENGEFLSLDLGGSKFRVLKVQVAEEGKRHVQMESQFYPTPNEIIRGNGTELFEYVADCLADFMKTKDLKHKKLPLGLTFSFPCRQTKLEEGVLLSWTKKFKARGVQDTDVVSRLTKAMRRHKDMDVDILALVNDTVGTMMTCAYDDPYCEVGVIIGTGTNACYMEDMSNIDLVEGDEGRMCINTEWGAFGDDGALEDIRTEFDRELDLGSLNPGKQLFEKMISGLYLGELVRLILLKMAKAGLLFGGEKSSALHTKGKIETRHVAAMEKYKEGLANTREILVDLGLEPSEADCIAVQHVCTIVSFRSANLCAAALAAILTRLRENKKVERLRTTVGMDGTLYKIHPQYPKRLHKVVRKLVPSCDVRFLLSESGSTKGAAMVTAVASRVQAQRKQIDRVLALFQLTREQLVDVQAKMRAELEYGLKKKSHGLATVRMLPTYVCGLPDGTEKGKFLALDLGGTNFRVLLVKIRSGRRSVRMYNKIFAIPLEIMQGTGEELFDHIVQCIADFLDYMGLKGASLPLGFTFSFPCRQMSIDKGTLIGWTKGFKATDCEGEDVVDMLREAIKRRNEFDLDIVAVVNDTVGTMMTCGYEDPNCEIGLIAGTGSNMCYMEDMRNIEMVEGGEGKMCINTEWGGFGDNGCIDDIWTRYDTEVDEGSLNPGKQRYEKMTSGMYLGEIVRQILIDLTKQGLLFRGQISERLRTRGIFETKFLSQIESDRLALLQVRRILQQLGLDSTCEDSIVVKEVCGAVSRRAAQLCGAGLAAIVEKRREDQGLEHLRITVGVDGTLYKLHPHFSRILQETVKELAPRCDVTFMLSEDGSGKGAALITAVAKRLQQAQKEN

[19] = target: Short transient receptor potential channel 6 (Mus musculus, UniProt Q61143); test: mouse TRPC6 channel blockers, concentration series – HEK293 cells, membrane potential dye, IC50, selectivity assay for selective TRPC4 inhibitor project, dose response (AID 492987); format: functional, cell-based
[20] = target: T7, Short transient receptor potential channel 4 (Mus musculus, UniProt Q9QUQ5); test: potency of mouse TRPC4 calcium flux blockers – cell-based, HEK293 TRPC4/mu-opioid, DAMGO stimulus, Fluo-4, dose response (AID 492994); format: functional
T7 sequence (Q9QUQ5 whole entry): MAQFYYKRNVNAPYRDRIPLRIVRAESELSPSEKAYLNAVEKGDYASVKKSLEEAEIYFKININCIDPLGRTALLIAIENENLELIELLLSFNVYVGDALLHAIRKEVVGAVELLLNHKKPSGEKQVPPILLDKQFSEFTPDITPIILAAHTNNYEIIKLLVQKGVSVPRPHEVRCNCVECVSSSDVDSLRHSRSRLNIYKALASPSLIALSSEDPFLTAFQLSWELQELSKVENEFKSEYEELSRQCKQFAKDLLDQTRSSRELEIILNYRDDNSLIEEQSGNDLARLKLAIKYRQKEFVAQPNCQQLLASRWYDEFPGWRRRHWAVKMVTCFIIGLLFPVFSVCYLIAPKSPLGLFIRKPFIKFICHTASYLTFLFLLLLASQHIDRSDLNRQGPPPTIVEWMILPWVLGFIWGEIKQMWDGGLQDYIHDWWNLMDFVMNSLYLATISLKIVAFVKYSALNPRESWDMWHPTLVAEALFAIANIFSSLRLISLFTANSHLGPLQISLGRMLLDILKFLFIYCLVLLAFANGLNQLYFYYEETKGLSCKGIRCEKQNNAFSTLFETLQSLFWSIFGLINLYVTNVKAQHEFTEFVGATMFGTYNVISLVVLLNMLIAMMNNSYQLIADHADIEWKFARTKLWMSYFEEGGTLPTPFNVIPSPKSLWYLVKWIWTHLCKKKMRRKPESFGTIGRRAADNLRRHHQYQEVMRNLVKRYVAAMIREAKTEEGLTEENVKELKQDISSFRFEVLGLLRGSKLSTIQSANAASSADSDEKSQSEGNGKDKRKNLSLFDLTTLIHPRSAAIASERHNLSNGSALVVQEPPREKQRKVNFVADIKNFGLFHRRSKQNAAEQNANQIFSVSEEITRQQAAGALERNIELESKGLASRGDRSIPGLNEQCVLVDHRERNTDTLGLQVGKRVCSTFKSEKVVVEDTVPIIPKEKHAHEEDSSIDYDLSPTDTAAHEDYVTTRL

[21] = target: T7, Short transient receptor potential channel 4; test: SAR Analysis for the identification of selective inhibits of the transient receptor potential cation channel C4 (TRPC4): Automated Electrophysiology_2. [Related pubchem assays (depositor defined):AID2256]; format: functional
[22] = target: Voltage-gated inwardly rectifying potassium channel KCNH2 (Homo sapiens, UniProt Q12809); conditions: Potency;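 note: confirmatory quantitative high-throughput screen measuring inhibition of hERG channel activity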
Sequence of Voltage-gated inwardly rectifying potassium channel KCNH2 (Q12809 whole entry): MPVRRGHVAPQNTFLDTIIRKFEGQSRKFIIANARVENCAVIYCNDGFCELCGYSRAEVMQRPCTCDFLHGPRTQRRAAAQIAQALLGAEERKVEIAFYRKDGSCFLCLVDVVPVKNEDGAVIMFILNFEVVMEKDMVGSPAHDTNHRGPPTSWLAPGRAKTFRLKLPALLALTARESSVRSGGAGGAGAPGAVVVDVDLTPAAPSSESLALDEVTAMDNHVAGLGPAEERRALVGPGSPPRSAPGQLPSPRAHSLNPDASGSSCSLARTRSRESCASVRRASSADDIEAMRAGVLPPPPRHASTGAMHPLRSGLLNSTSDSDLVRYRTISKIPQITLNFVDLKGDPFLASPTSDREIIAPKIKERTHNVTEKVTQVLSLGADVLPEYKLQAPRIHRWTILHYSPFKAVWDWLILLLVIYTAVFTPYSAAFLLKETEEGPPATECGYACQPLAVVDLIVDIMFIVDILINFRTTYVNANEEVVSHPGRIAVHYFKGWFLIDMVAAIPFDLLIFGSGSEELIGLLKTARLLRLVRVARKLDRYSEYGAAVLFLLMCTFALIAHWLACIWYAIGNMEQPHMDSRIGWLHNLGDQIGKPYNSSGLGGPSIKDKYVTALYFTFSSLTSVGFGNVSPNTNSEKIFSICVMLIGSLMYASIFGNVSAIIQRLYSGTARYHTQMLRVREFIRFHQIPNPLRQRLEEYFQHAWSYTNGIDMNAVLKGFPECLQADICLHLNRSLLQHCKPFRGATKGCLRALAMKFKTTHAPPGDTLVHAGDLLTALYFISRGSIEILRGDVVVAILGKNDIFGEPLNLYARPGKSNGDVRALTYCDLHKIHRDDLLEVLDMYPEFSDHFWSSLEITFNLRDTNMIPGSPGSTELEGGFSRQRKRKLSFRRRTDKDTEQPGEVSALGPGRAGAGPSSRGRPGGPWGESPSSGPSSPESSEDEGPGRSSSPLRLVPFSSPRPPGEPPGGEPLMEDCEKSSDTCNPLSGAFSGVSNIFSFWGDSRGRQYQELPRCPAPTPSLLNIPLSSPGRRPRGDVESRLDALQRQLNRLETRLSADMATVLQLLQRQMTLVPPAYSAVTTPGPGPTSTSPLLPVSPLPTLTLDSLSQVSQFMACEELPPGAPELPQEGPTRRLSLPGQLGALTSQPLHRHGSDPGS

T4 sequence (P51452 whole entry): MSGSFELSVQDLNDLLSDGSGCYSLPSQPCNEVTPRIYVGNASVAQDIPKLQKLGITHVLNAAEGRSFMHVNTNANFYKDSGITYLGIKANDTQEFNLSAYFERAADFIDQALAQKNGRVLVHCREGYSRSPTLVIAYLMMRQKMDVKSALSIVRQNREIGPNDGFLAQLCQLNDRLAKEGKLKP
T1 sequence (P07550 whole entry): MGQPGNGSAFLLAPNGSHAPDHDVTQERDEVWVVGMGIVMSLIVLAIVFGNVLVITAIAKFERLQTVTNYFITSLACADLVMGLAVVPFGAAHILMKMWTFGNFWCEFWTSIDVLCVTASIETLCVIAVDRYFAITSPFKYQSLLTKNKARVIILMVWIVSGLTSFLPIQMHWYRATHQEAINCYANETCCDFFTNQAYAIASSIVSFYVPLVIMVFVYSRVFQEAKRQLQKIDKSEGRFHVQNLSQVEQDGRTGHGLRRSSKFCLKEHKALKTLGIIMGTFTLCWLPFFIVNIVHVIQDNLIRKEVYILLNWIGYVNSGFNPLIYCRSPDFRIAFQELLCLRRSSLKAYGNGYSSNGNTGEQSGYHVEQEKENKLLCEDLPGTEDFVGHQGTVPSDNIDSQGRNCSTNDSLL
Sequence of Short transient receptor potential channel 6 (Q61143 whole entry): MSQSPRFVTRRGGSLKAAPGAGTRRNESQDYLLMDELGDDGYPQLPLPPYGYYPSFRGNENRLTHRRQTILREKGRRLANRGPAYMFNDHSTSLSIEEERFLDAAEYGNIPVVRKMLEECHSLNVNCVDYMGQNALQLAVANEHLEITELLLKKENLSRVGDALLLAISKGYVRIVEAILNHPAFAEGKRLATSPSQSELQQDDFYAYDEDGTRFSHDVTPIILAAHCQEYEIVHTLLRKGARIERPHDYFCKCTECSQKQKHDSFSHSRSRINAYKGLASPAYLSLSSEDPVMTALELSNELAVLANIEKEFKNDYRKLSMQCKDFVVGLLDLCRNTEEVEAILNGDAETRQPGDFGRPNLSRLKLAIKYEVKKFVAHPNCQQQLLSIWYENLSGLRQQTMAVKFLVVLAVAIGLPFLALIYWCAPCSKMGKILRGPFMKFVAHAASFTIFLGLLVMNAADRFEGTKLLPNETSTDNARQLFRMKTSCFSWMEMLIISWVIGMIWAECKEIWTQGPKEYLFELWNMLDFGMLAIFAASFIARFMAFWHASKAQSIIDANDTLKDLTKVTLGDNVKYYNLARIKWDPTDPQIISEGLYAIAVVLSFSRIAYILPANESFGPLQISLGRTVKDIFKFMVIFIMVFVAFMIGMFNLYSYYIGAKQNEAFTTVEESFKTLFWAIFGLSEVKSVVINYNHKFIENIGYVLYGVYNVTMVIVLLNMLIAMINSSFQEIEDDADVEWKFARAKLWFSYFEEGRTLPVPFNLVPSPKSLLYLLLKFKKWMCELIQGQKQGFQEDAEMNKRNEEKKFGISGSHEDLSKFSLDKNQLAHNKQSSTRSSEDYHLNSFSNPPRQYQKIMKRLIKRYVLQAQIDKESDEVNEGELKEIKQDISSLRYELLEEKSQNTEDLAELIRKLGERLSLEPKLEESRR
Sequence of Dual specificity protein phosphatase 6 (Q64346 whole entry): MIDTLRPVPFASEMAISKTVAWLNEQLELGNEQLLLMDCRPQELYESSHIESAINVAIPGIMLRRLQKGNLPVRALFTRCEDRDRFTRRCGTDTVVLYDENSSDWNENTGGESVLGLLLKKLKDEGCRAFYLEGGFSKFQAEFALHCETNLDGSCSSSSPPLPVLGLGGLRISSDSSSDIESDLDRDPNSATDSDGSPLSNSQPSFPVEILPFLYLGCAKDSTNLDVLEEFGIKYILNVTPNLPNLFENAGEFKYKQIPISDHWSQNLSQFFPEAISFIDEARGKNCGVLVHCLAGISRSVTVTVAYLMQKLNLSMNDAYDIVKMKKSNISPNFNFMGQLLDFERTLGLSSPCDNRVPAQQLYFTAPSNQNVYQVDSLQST
Sequence of Hexokinase-1 (P19367 whole entry, the tested form may be a part): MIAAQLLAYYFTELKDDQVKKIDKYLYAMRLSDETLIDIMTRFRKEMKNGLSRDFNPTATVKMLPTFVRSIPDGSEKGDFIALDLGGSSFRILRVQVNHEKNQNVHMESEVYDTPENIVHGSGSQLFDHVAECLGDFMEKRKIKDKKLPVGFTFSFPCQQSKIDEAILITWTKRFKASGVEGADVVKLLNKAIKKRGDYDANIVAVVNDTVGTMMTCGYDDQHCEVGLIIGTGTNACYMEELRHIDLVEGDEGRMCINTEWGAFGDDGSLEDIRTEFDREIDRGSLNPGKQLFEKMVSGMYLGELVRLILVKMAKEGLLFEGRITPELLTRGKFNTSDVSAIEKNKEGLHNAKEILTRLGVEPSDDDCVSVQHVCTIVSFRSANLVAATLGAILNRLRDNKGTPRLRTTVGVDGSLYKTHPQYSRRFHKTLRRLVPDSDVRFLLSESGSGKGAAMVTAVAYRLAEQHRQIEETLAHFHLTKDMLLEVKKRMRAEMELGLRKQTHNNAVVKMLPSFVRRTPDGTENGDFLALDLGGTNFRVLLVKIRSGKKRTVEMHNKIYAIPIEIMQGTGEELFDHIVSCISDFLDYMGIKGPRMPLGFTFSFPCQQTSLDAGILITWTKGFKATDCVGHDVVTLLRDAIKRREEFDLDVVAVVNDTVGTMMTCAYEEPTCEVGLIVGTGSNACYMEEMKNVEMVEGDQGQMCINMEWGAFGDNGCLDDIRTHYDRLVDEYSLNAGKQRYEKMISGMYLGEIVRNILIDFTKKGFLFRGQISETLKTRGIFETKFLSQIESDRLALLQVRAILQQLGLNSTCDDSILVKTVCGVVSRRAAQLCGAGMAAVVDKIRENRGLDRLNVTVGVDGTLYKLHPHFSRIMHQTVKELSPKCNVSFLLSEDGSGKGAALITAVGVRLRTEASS
Sequence of Beta-galactosidase (Q8VNN2 whole entry): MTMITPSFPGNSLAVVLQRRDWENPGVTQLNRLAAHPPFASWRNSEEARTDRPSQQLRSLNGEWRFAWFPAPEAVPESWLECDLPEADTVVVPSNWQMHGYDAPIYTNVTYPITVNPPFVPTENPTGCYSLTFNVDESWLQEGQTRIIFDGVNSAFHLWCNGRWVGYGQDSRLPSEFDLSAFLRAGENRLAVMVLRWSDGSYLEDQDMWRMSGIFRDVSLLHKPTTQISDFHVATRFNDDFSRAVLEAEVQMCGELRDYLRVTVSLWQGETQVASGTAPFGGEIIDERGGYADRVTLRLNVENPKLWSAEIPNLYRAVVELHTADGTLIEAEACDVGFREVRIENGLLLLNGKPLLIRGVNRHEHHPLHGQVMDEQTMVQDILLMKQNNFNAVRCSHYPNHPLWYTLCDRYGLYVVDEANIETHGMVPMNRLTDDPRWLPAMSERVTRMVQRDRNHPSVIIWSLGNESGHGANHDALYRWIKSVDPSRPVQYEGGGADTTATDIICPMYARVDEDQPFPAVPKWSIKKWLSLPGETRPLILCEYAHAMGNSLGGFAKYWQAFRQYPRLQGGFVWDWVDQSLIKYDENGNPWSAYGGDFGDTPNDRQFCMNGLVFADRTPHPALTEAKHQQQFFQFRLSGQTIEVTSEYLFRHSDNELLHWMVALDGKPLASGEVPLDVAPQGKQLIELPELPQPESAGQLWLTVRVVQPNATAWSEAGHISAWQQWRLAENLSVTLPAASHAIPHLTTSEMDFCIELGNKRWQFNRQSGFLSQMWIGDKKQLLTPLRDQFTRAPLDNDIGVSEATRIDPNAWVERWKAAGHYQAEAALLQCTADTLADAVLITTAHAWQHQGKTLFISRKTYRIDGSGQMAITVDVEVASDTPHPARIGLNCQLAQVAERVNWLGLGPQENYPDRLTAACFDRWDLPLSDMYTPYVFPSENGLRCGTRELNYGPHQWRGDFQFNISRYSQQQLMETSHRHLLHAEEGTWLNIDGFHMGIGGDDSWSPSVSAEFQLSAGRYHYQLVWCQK

Compound: C=CCn1c(CCNC(=O)c2cccs2)nnc1SCC(=O)c1ccc(Br)cc1
- EC50 [1]: 0.214 µM (active)
- EC50 [2]: 0.00548 µM (active)

Compound: O=C1/C(=C/c2ccccc2)C[C@@]2(O)[C@H]3Cc4ccc(O)c5c4[C@@]2(CCN3CC2CC2)C1O5 (stereo partly specified)
- EC50 (Beta-galactosidase): > 40 µM (inactive)
- IC50 (Jurkat): 4.22 µM (active)
- IC50 [3]: 14 µM (active)
- AC50 [4]: 4.64 µM (active)
- AC50 [5]: 7.78 µM (active)
- AC50 [6]: 8.88 µM (active)
- IC50 [7]: > 80 µM (inactive)

Compound: Cc1ccc(Nc2nc(N)nc(CSC(=S)N3CCN(c4ccccc4)CC3)n2)cc1
- AC50 [8]: 31.4 µM (active)
- AC50 [9]: 13.4 µM (active)

Compound: CCOC(=O)C1=C(C)N=c2s/c(=C\c3cc(Cl)c(OCC(=O)O)c(Cl)c3)c(=O)n2C1c1cccc(OC)c1 (stereo unspecified)
- IC50 [10]: 49.7 µM (active)
- IC50 [11]: 7.99 µM (active)
- IC50 [12]: 34.1 µM (active)
- IC50 [13]: 31.9 µM (active)
- IC50 [14]: 44.6 µM (active)
- IC50 [15]: 13.4 µM (active)
- IC50 [16]: 2.76 µM (active)
- IC50 [17]: 1.22 µM (active)
- IC50 [18]: 1.95 µM (active)

Compound: O=c1c2ccccc2nc(/C=C/c2ccccc2Cl)n1Cc1ccccc1
- IC50 (Hexokinase-1): > 80 µM (inactive)
- IC50 (Hexokinase HKDC1): > 80 µM (inactive)

Compound: Cc1cc(N2CCCC2)nc2c(C)cccc12
- IC50 [19]: 9.8 µM (active)
- IC50 [20]: 10.7 µM (active)
- IC50 [21]: 9.96 µM (active)

Compound: COc1cc([C@@H]2c3cc4c(cc3[C@H](O)C3COC(=O)[C@@H]32)OCO4)cc(OC)c1OC (stereo partly specified)
- AC50 [22]: 0.501 µM (inconclusive)
